{"source": "patent US20150217046A1", "about": "“DOSING REGIMENS FOR SUBCUTANEOUSLY INFUSIBLE ACIDIC COMPOSITIONS” (SynAgile Corporation, priority 2012, published 2015)", "key": {"[1]": {"conditions": "minipig B day 1: 90 mg LDEE (100 mg/mL, pH 3.7) s.c. continuous over 8 h, oral Lodosyn"}, "[2]": {"conditions": "minipig C day 1: 560 mg LDEE (100 mg/mL, pH 3.7) split between 2 sites, s.c. continuous over 8 h, oral Lodosyn"}, "[3]": {"conditions": "minipig C day 8: 280 mg LDEE (100 mg/mL, pH 3.7) re-infused at one site, s.c. continuous over 8 h"}, "[4]": {"conditions": "minipig D day 1: 560 mg LDEE (100 mg/mL, pH 3.7) split between 2 sites, s.c. continuous over 8 h, oral Lodosyn"}, "[5]": {"conditions": "minipig D day 8: 560 mg LDEE (100 mg/mL, pH 3.7) re-infused at the 2 day 1 sites, s.c. continuous over 8 h"}, "[6]": {"conditions": "minipig E day 1: 560 mg LDEE (100 mg/mL, pH 3.7) split between 2 sites, s.c. continuous over 8 h, pre-infused with 15 units human hyaluronidase"}, "[7]": {"conditions": "minipig F day 1: 560 mg LDEE (100 mg/mL, pH 3.7) split between 2 sites, s.c. continuous over 8 h, pre-infused with 15 units human hyaluronidase"}, "[8]": {"conditions": "minipig F day 8: 560 mg LDEE (100 mg/mL, pH 3.7) re-infused at 2 sites over 8 h, pre-infused with 15 units human hyaluronidase"}}, "note": "Read-outs that look alike come from different tables or passages of the source.", "description": "Six minipigs, labeled A, B, C, D, E and F, weighing between 5 and 8 kg, were ported for venous access two weeks prior to infusion.\nOn Day 8 minipig A was similarly re-infused at the contralateral body site after it was pre-infused over about 10 minutes with 15 units of human hyaluronidase.\nMinipigs C and D were infused on the first day over 8 hours continuously with 560 mg (2.5 millimoles) of the 100 mg/mL, i.e., with 5.6 mL of the pH 3.7 (16 mM citrate buffered) LDEE pharmaceutical composition. The 560 mg dose was split between 2 sites separated by 3 inches, each site receiving 280 mg.\nMinipigs E and F were infused on Day 1 similarly to minipigs C and D, but were pre-infused over about 10 minutes with 15 units of human hyaluronidase.\nOn the 8th day minipig D was re-infused at the Day 1 infusion sites over 8 hours continuously with 560 mg (2.5 millimoles) of 100 mg/mL, i.e., with 5.6 mL of the pH 3.7 (16 mM citrate buffered) LDEE pharmaceutical composition. […] Minipig F was also re-infused on Day 8 similarly to minipig D but was pre-infused with 15 units of human hyaluronidase over about 10 min.\nOn Day 8, minipig C was also re-infused, but received only half the dose.\nThe samples were rapidly cooled and spun down to plasma; because hemoglobin reacts with LD in a reaction where LD is decarboxylated, red-colored plasma samples were excluded."}
{"smiles": "CCOC(=O)[C@@H](N)Cc1ccc(O)c(O)c1", "note": "[LDEE, levodopa ethyl ester]", "values": [{"measurement": "Plasma LD, 480 minutes after start of infusion", "setting": "minipig B day 1: 90 mg LDEE (100 mg/mL, pH 3.7) s.c. continuous over 8 h", "result": "1,351 ng/mL"}, {"measurement": "40 minutes Post-Infusion plasma LD", "setting": "[1]", "result": "1,010 ng/mL"}, {"measurement": "100 minutes Post-Infusion plasma LD", "setting": "[1]", "result": 686, "unit": "ng/mL"}, {"measurement": "170 minutes Post-Infusion plasma LD", "setting": "[1]", "result": 376, "unit": "ng/mL"}, {"measurement": "End of Infusion Plasma LD", "setting": "[1]", "result": "1,351 ng/mL"}, {"measurement": "Plasma LD, 480 minutes after start of infusion", "setting": "minipig C day 1: 560 mg LDEE (100 mg/mL, pH 3.7) split between 2 sites, s.c. continuous over 8 h", "result": "11,377 ng/mL"}, {"measurement": "40 minutes Post-Infusion plasma LD", "setting": "[2]", "result": "11,006 ng/mL"}, {"measurement": "100 minutes Post-Infusion plasma LD", "setting": "[2]", "result": "6,010 ng/mL"}, {"measurement": "170 minutes Post-Infusion plasma LD", "setting": "[2]", "result": "5,754 ng/mL"}, {"measurement": "End of Infusion Plasma LD", "setting": "[2]", "result": "11,377 ng/mL"}, {"measurement": "Plasma LD, 480 minutes after start of infusion", "setting": "minipig C day 8: 280 mg LDEE (100 mg/mL, pH 3.7) at one site, 8 h", "result": 4739, "unit": "ng/mL"}, {"measurement": "40 minutes Post-Infusion plasma LD", "setting": "[3]", "result": 4551, "unit": "ng/mL"}, {"measurement": "100 minutes Post-Infusion plasma LD", "setting": "[3]", "result": 3357, "unit": "ng/mL"}, {"measurement": "170 minutes Post-Infusion plasma LD", "setting": "[3]", "result": 2306, "unit": "ng/mL"}, {"measurement": "End of Infusion Plasma LD", "setting": "[3]", "result": 4739, "unit": "ng/mL"}, {"measurement": "Plasma LD, 480 minutes after start of infusion", "setting": "minipig D day 1: 560 mg LDEE (100 mg/mL, pH 3.7) split between 2 sites, s.c. continuous over 8 h", "result": "15,356 ng/mL"}, {"measurement": "40 minutes Post-Infusion plasma LD", "setting": "[4]", "result": "17,055 ng/mL"}, {"measurement": "100 minutes Post-Infusion plasma LD", "setting": "[4]", "result": "9,790 ng/mL"}, {"measurement": "170 minutes Post-Infusion plasma LD", "setting": "[4]", "result": "6,942 ng/mL"}, {"measurement": "End of Infusion Plasma LD", "setting": "[4]", "result": "15,356 ng/mL"}, {"measurement": "Plasma LD, 480 minutes after start of infusion", "setting": "minipig D day 8: 560 mg LDEE (100 mg/mL, pH 3.7) re-infused at the 2 day 1 sites, 8 h", "result": 8075, "unit": "ng/mL"}, {"measurement": "40 minutes Post-Infusion plasma LD", "setting": "[5]", "result": 8350, "unit": "ng/mL"}, {"measurement": "100 minutes Post-Infusion plasma LD", "setting": "[5]", "result": 5928, "unit": "ng/mL"}, {"measurement": "170 minutes Post-Infusion plasma LD", "setting": "[5]", "result": 4219, "unit": "ng/mL"}, {"measurement": "End of Infusion Plasma LD", "setting": "[5]", "result": 8075, "unit": "ng/mL"}, {"measurement": "increase in plasma LD concentration 40 minutes after cessation of infusion", "setting": "minipig D, Day 1 infusion", "result": "1,699 ng/mL"}, {"measurement": "40 minutes Post-Infusion plasma LD", "setting": "[6]", "result": "11,918 ng/mL"}, {"measurement": "100 minutes Post-Infusion plasma LD", "setting": "[6]", "result": "5,464 ng/mL"}, {"measurement": "170 minutes Post-Infusion plasma LD", "setting": "[6]", "result": "7,329 ng/mL"}, {"measurement": "End of Infusion Plasma LD", "setting": "[6]", "result": "14,212 ng/mL"}, {"measurement": "Plasma LD, 480 minutes after start of infusion", "setting": "minipig E day 1: 560 mg LDEE (100 mg/mL, pH 3.7), 2 sites, 8 h, hyaluronidase pre-infusion", "result": "14,212 ng/mL"}, {"measurement": "40 minutes Post-Infusion plasma LD", "setting": "[7]", "result": "12,310 ng/mL"}, {"measurement": "100 minutes Post-Infusion plasma LD", "setting": "[7]", "result": "3,046 ng/mL"}, {"measurement": "170 minutes Post-Infusion plasma LD", "setting": "[7]", "result": "5,903 ng/mL"}, {"measurement": "End of Infusion Plasma LD", "setting": "[7]", "result": "12,982 ng/mL"}, {"measurement": "Plasma LD, 480 minutes after start of infusion", "setting": "minipig F day 1: 560 mg LDEE (100 mg/mL, pH 3.7), 2 sites, 8 h, hyaluronidase pre-infusion", "result": "12,982 ng/mL"}, {"measurement": "40 minutes Post-Infusion plasma LD", "setting": "[8]", "result": 8223, "unit": "ng/mL"}, {"measurement": "100 minutes Post-Infusion plasma LD", "setting": "[8]", "result": 6231, "unit": "ng/mL"}, {"measurement": "170 minutes Post-Infusion plasma LD", "setting": "[8]", "result": 3650, "unit": "ng/mL"}, {"measurement": "End of Infusion Plasma LD", "setting": "[8]", "result": 8880, "unit": "ng/mL"}, {"measurement": "Plasma LD, 480 minutes after start of infusion", "setting": "minipig F day 8: 560 mg LDEE (100 mg/mL, pH 3.7), 2 sites, 8 h, hyaluronidase pre-infusion", "result": 8880, "unit": "ng/mL"}]}
